According to article PMC5789847, “Bismuth antimicrobial drugs serve as broad-spectrum metallo-β-lactamase inhibitors” (Nature Communications, 2018):

Legend:
[1] = test system: NDM-Rosetta; experiment: Microdilution MIC assay; type: cell-based, E. coli; settings: Escherichia coli, CBS0, read-out: MIC of MER, CBS at 0
Description: (§1) Other procedures were kept strictly the same.

[2] = test system: NDM-BL21; experiment: Microdilution MIC assay; type: cell-based, E. coli; settings: Escherichia coli, CBS0, read-out: MIC of MER, CBS at 0
Description: as §1

[3] = test system: NDM-C. freundii (NDM-1^+); experiment: Microdilution MIC/MBC and checkerboard assay; type: cell-based, Citrobacter freundii; settings: NDM-C. freundii (NDM-CF)
Method: (§2) MIC values were determined by standard broth micro-dilution method (Clinical and Laboratory Standards Institute (CLSI) M100-S20, 2010)[64]. Briefly, bacterial cells were cultured in LB broth overnight at 37 °C at 250 rpm and the OD was measured at 600 nm (OD600). The bacterial density was adjusted to about 1 × 10^6 CFU mL^−1 and checked by CFU counting on agar plates afterwards. Tested antibiotics or Bi(III) compounds were added triplicately into individual wells of flat-bottomed 96-well plates and performed 2-fold serial dilution, followed by addition of prepared bacterial inocula. The plate was then incubated at 37 °C for overnight. […] The MIC was determined as the lowest concentration of a drug that could inhibit the growth of microorganism by both visual reading and OD reading at 600 nm using a microtiter plate reader.
(§3) Resulting growth (or lack of growth) was examined after overnight culturing and the lowest concentration that inhibits 99.9% of the original culture was taken as MBC.
(§4) Other procedures were kept strictly the same. […] Synergism was defined when FICI ≤ 0.5, indifference was defined when FICI > 0.5 and < 4, and antagonism was defined when FICI≥4[65]. […] All of the determinations were performed at least in triplicate on different days.

[4] = test system: NDM-Rosetta OX; experiment: Microdilution MIC assay; type: cell-based, E. coli; settings: Escherichia coli, CBS0, read-out: MIC of MER, CBS at 0, NDM-Rosetta OX (NDM-1 overexpressing); CBS 0 µg mL-1
Method: For the test of NDM-Rosetta OX, the growth condition briefly goes as follow. Overnight culture of NDM-Rosetta was 1000-fold diluted into fresh LB medium and regrew to OD ~0.6. The overexpression of NDM-1 was induced by addition of 1 mM isopropyl β-D-1-thiogalactopyranoside (IPTG) for 4 h at 37 °C. The following susceptibility test was performed as described in the Microdilution MIC and MBC assay section in the methodology by using the resulting bacterial pellets with the supplementation of 200 µM IPTG.
as §1

[5] = test system: C208A-Rosetta; experiment: Microdilution MIC assay; type: cell-based, E. coli; settings: Escherichia coli, CBS0, read-out: MIC of MER, CBS at 0
Method: For the test of C208A-Rosetta, the growth condition briefly goes as follow. Overnight culture of C208A-Rosetta was diluted into fresh LB medium (1000-fold) and regrew to OD ~0.6. The overexpression of NDM-1-C208A was induced by addition of 200 μM isopropyl β-D-1-thiogalactopyranoside (IPTG) for 18 h at 25 °C. The following susceptibility test was performed as described in the Microdilution MIC and MBC assay section in the methodology by using the resulting bacterial pellets with the supplementation of 200 μM IPTG.
as §1

[6] = test system: NDM-HK PCV; experiment: Murine peritonitis infection with NDM-1-negative bacteria; type: in vivo, BALB/c mice; settings: identical dose of MER, lethal dose of NDM-HK PCV
[7] = test system: NDM-HK (NDM-1^+); experiment: microbe, parasite or virus in culture; type: cell-based, E. coli; settings: Escherichia coli
Method: as §2, §3, §4

[8] = test system: VIM-BL21 (VIM-2^+); experiment: microbe, parasite or virus in culture; type: cell-based, E. coli
Method: as §2, §3, §4

[9] = test system: IMP-BL21 (IMP-4^+); experiment: microbe, parasite or virus in culture; type: cell-based, E. coli
Method: as §2, §3, §4

[10] = test system: NDM-HK; experiment: Murine peritonitis infection, mucin-assisted model; type: in vivo, BALB/c mice; settings: 2% mucin, i.p. twice daily
Description: All experiments were approved by, and performed in accordance with the guidelines approved by Committee on the Use of Live Animals in Teaching and Research (CULATR), the University of Hong Kong. A total of 6–8-week-old, female BALB/c mice (18–22 g) were purchased from Charles River Laboratories, Inc. and were used in all mouse studies. The animals were randomized to cages for each experiment.
In mucin-assisted model, for infection with NDM-1-positive bacteria, an overnight culture of NDM-HK was performed 1:250 dilution in 100 mL LB broth and re-grew to about OD600 0.3 in a 500-mL flask after 2.5 h shaking at 37 °C, 250 rpm. Bacterial pellets were collected and washed by PBS buffer three times for further use. Mice were infected intraperitoneally (i.p.) with a dose of 1 × 10^5 CFU of bacteria in PBS supplemented with 2% mucin. […] Twice-daily treatment via i.p. injection was continued throughout the whole experimental course. For the infection with NDM-1-negative bacteria, all the operations of infection were similar to those used for NDM-HK, except that NDM-HK PCV was used as infection-causing bacteria. […] Twice-daily treatment via i.p. injection was continued throughout the whole experimental course. Body weights and mice survival were monitored till endpoint of the experiment.

[11] = test system: NDM-HK; experiment: In vitro cell infection assay (MDCK cells); type: cell-based, E. coli; settings: MOI 200, MER at 2-fold MIC alone, overnight
Method: MDCK cell was cultured in minimum essential Media (MEM) supplemented with fetal bovine serum (FBS, 10%) and grown at 37 °C in 5% CO2-humidified atmosphere for 3 days. About 1.0 × 10^5 MDCK cells were seeded per well in 24-well plates and incubated as described above for 48 h to ensure confluency. Logarithmic cultures of NDM-HK were washed with PBS for three times and re-suspended in MEM/10% FBS resulting in the initial bacterial density of about 2.0 × 10^7 CFU mL^−1. Then, 500 μL of bacterial suspension were added to each well and substituted for the previous MDCK culture medium. The plates were centrifuged at 800 × g for 10 min and then incubated for another 6 h, executing the bacterial infection at multiplicity of infection (MOI) of 200. We then used two infection models for examination, viz, the cell-associated bacterial infection and cell-invaded bacterial infection. The cell-associated bacteria are herein defined as bacteria that attach to, penetrate, or transcytose in MDCK cells, while the cell-invaded bacteria are defined as bacteria that penetrate or transcytose MDCK cells. For the cell-invaded infection, the infected cells were incubated in culture medium supplemented with ciprofloxacin (100 µg mL^−1) for 1 h to remove extracellular bacteria. Then, the treated cells were washed vigorously with PBS for six times and replenished with culture medium. For the cell-associated infection, the infected cells were only washed vigorously with PBS for six times to remove unbound bacteria. The infected MDCK cells were then exposed to either MER or CBS, or their combination for overnight under identical cell culture condition. Cells in the absence of drugs served as a control. The bacterial loads were examined by lysing MDCK cells with 1% Triton X-100 in PBS and serially diluting the resulting lysates to enumerate bacterial colonies by agar plating. The assay was performed in triplicate, repeated three times, and results were expressed as average ± SD.

[12] = test system: NDM-K. pneumonia (NDM-1^+); experiment: Microdilution MIC/MBC and checkerboard assay; type: cell-based, Klebsiella pneumonia; settings: NDM-K. pneumonia (NDM-KP)
Method: as §2, §3, §4

[13] = test system: NDM-HK; experiment: Resistance study: MPC and mutation frequency; type: cell-based, E. coli; settings: no CBS
[14] = Escherichia coli, read-out: MBC of MER alone
[15] = Escherichia coli, read-out: MIC of MER alone

C[C@@H](O)[C@H]1C(=O)N2C(C(=O)O)=C(S[C@@H]3CN[C@H](C(=O)N(C)C)C3)[C@H](C)[C@H]12 [MER, meropenem]
MIC [1]: 32 mg/L
MIC [2]: 16 mg/L
MBC ([3]; Citrobacter freundii, read-out: MBC of MER alone): 8 mg/L
MIC ([3]; Citrobacter freundii, read-out: MIC of MER alone): 8 mg/L
MBC of MER alone [3]: 8/8 µg mL^-1
MIC of MER alone [3]: 8/8 µg mL^-1
MIC [4]: 256 mg/L
MIC [5]: 0.12 mg/L
outcome of MER monotherapy in mice infected with NDM-HK PCV [6]: cured all the mice
MIC ([7]; CBS0, read-out: MIC of MER alone): 16 mg/L
MBC ([7]; read-out: MBC of MER alone): 16 mg/L
MBC [8, 14]: 32 mg/L
MIC [8, 15]: 32 mg/L
MBC of MER alone ([8]; VIM-BL21): 32/32 µg mL^-1
MIC of MER alone ([8]; VIM-BL21): 32/32 µg mL^-1
MBC [9, 14]: 32 mg/L
MIC [9, 15]: 32 mg/L
MBC of MER alone ([9]; IMP-BL21): 32/32 µg mL^-1
MIC of MER alone ([9]; IMP-BL21): 32/32 µg mL^-1
mice rescued at endpoint, MER monotherapy [10]: two of the eight mice
viable bacterial loads, cell-associated infection [11]: ~10^6 CFU
MBC ([12]; Klebsiella pneumoniae, read-out: MBC of MER alone): 16 mg/L
MIC ([12]; Klebsiella pneumoniae, read-out: MIC of MER alone): 16 mg/L
MBC of MER alone [12]: 16/16 µg mL^-1
MIC of MER alone [12]: 16/16 µg mL^-1
MPC of MER alone [13]: 32 folds of MIC
